Data: patent US12319651B2, “Crystalline forms and methods of producing crystalline forms of a compound” (priority 2019, dated 2025)

Legend:
[1] = Measurement of the approximate solubility (visual dissolution in solvent aliquots); format: physicochemical; conditions: thermodynamic from solid
Description: Aliquots of various solvents were added to measured amounts of compound with agitation (typically sonication) at ambient or elevated temperatures until complete dissolution was achieved, as judged by visual observation.
The approximate solubility at ambient temperature must be known in order to carry out systematic crystallization experiments.

[2] = Dynamic vapor sorption (moisture sorption/desorption); format: physicochemical; conditions: for Hygroscopicity: automated vapor sorption/desorption analysis, 5% to 95% RH
Description: Moisture sorption/desorption data were collected on a VTI SGA-100 Vapor Sorption Analyzer. Sorption and desorption data were collected over a range of 5% to 95% relative humidity (RH) at 10% RH intervals under an nitrogen purge. Samples were not dried prior to analysis. Equilibrium criteria used for analysis were less than 0.0100% weight change in 5 minutes, with a maximum equilibration time of 3 hours if the weight criterion was not met. Data were not corrected for the initial moisture content of the samples. NaCl and PVP were used as calibration standards.

[3] = format: physicochemical
Description: The starting crystal Form was heated to 120° C. and the resulting material was analyzed by XRPD.
The XRPD results of crystalline Form E (FIG. 2) show good crystallinity. […] (FIG. 6). […] The XRPD results of crystalline Forms E+C (FIG. 3) show good crystallinity. Differential scanning calorimetry results for crystalline Forms E+C were very similar to that of Form E (FIG. 7). […] Form conversion was complete by 125° C. in the solid state.

[4] = Interconversion slurries of crystal forms; format: physicochemical; conditions: for Relationship of forms C and E: from DSC data and interconversion results, transition temperature less than ambient
Text: Crystal forms of the compound of Formula (I) were weighed out in approximately equal amounts and combined as desired. Aliquots of saturated solutions of compound in various solvents were filtered (0.2-μm nylon filter) into vials containing solid mixtures such that undissolved solids were present. The mixture was then agitated by either loading it onto an orbit shaker or adding a cross-shaped stir bar and allowing the mixture to stir in a sealed vial at stated conditions. The solids were isolated by vacuum filtration and analyzed.
Interconversion slurries were conducted as individual pairings between the E+C mixture and Form E material and between forms C and E. The experiments were carried out in cyclohexane and acetone:water 20:80, at room temperature for 7 days. Additional slurries were set up in toluene at room temperature for 1 day and at approximately 5° C. for 2 days.
A second set of interconversion slurries was conducted in which all unique patterns were slurried together at 50° C. in cyclohexane and ethanol:water 50:50. […]

N#Cc1ccc(N2CCC[C@@H]2C(O)C(F)(F)F)cc1C(F)(F)F (stereo partly drawn) [Compound of Formula (I)]
solubility ([1]; aqueous with cosolvent or surfactant or cyclodextrin, ambient, 1,4-dioxane/water 20:80 v/v): < 2 mg/mL
solubility ([1]; aqueous with cosolvent or surfactant or cyclodextrin, ambient, 1-propanol/water 20:80 v/v): < 2 mg/mL
solubility ([1]; aqueous with cosolvent or surfactant or cyclodextrin, ambient, 2,2,2-trifluoroethanol/water 20:80 v/v): < 2 mg/mL
solubility ([1]; aqueous with cosolvent or surfactant or cyclodextrin, ambient, acetone/water 20:80 v/v): < 2 mg/mL
solubility ([1]; aqueous with cosolvent or surfactant or cyclodextrin, ambient, acetone/water 50:50 v/v): 9 mg/mL
solubility ([1]; aqueous with cosolvent or surfactant or cyclodextrin, ambient, acetonitrile/water 20:80 v/v): < 2 mg/mL
solubility ([1]; aqueous with cosolvent or surfactant or cyclodextrin, ambient, ethanol/water 20:80 v/v): < 2 mg/mL
solubility ([1]; aqueous with cosolvent or surfactant or cyclodextrin, ambient, hexafluoroisopropanol/water 20:80 v/v): < 2 mg/mL
solubility ([1]; aqueous with cosolvent or surfactant or cyclodextrin, ambient, isopropanol/water 20:80 v/v): < 2 mg/mL
solubility ([1]; aqueous with cosolvent or surfactant or cyclodextrin, ambient, methanol/water 20:80 v/v): < 2 mg/mL
solubility ([1]; aqueous with cosolvent or surfactant or cyclodextrin, ambient, tetrahydrofuran/water 20:80 v/v): < 2 mg/mL
solubility ([1]; organic solvent or mixture, ambient, 1,4-dioxane): > 111 mg/mL
solubility ([1]; organic solvent or mixture, ambient, 1-butanol): 37 mg/mL
solubility ([1]; organic solvent or mixture, ambient, 1-propanol): 55 mg/mL
solubility ([1]; organic solvent or mixture, ambient, 2,2,2-trifluoroethanol): 51 mg/mL
solubility ([1]; organic solvent or mixture, ambient, 2-butanone): > 107 mg/mL
solubility ([1]; organic solvent or mixture, ambient, acetone): > 112 mg/mL
solubility ([1]; organic solvent or mixture, ambient, acetonitrile): > 110 mg/mL
solubility ([1]; organic solvent or mixture, ambient, chloroform): 37 mg/mL
solubility ([1]; organic solvent or mixture, ambient, cyclohexane): < 2 mg/mL
solubility ([1]; organic solvent or mixture, ambient, dichloromethane): 37 mg/mL
solubility ([1]; organic solvent or mixture, ambient, diethyl ether): 58 mg/mL
solubility ([1]; organic solvent or mixture, ambient, ethanol): > 104 mg/mL
solubility ([1]; organic solvent or mixture, ambient, ethyl acetate): > 108 mg/mL
solubility ([1]; organic solvent or mixture, ambient, hexafluoroisopropanol): > 106 mg/mL
solubility ([1]; organic solvent or mixture, ambient, hexanes): < 2 mg/mL
solubility ([1]; organic solvent or mixture, ambient, isopropanol): > 102 mg/mL
solubility ([1]; organic solvent or mixture, ambient, isopropyl ether): 55 mg/mL
solubility ([1]; organic solvent or mixture, ambient, methanol): > 116 mg/mL
solubility ([1]; organic solvent or mixture, ambient, methyl isobutyl ketone): > 100 mg/mL
solubility ([1]; organic solvent or mixture, ambient, tert-butyl methyl ether): > 111 mg/mL
solubility ([1]; organic solvent or mixture, ambient, tetrahydrofuran): > 102 mg/mL
solubility ([1]; organic solvent or mixture, ambient, toluene): 15 mg/mL
solubility ([1]; ambient, water): < 2 mg/mL

N#Cc1ccc(N2CCC[C@@H]2C(O)C(F)(F)F)cc1C(F)(F)F (stereo partly drawn) [Form B]
Hydrate formation [2]: does not show any evidence of hydrate formation
Stability over humidity [2]: stable over a wide range of humidity
Temperature of likely form transformation upon heating [3]: approximately 150 °C

N#Cc1ccc(N2CCC[C@@H]2C(O)C(F)(F)F)cc1C(F)(F)F (stereo partly drawn) [Form C]
Hydrate formation [2]: does not show any evidence of hydrate formation
Stability over humidity [2]: stable over a wide range of humidity
Water uptake ([2]; DVS, FIG. 9): negligible water uptake
Hygroscopicity [2]: non-hygroscopic
Most stable form in slurry of all forms ([4]; 50° C., 7 days, cyclohexane and ethanol:water 50:50): most stable form
Thermodynamic stability among crystal forms ([4]; cyclohexane, acetone:water 20:80, toluene at ambient temperature, ethanol:water 50:50 at approximately 50° C.): most thermodynamically stable form
Relationship of forms C and E [4]: enantiotropic
Form stability upon heating and cooling ([3]; heating to 150° C. and cooling down to ambient temperature): remained stable
Relative thermodynamic stability from heating study ([3]; starting crystal form heated to 120° C., XRPD): thermodynamically more stable crystal form

N#Cc1ccc(N2CCC[C@@H]2C(O)C(F)(F)F)cc1C(F)(F)F (stereo partly drawn) [Form E + C]
Hygroscopicity ([2]; listed as E+C mixture): slightly hygroscopic
XRPD Result after heating ([3]; heated to 120° C.): Form C

N#Cc1ccc(N2CCC[C@@H]2C(O)C(F)(F)F)cc1C(F)(F)F (stereo partly drawn) [Form E]
Stability over humidity [2]: stable over a wide range of humidity
Hygroscopicity [2]: slightly hygroscopic
Relationship of forms C and E [4]: enantiotropic
Most stable form in slurry ([4]; toluene at approximately 5° C.): most stable form
Temperature at which form conversion was complete ([3]; VT-XRPD, solid state): ≤ 125 °C
Temperature of conversion to Form C upon heating ([3]; VT-XRPD, mixture of forms E+C observed at this temperature): 115 °C
